Test results published in patent publication US20240238281A1, “PIPERAZINE DERIVATIVES AND APPLICATION THEREOF” (priority 2021, published 2024).
Entries after “also recorded” stand apart in the source; their conditions may differ. Where two headings read alike, the source gives them in different places.

Tests used:
MC5R = target: T1, MC5R (Homo sapiens, UniProt P33032); experiment: In vitro activity of MCR receptors, intracellular cAMP signal (HEK293T/MCR cell line), MC5R; type: cell-based; details: cAMP, HEK293T/MCR cell line; read-out: MC5R EC50
T1 construct: expressed in transfected cells
Description: (§1) Test purpose: to evaluate the agonistic effect of the compound on MCRs by detecting intracellular cAMP signal changes.
(§2) Cells were resuspended with 1×PBS+500 μM IBMX. 10 μL of the cell suspension was added into a 384-well plate to be tested, and the cell concentration was adjusted to 1×10^4 cells per well for later use. A pre-prepared solution of the compound to be tested was added, and dimethyl sulfoxide of the same volume was added to blank control wells. The test plate was centrifuged at 300 rpm for 1 minute, incubated at 37° C. for 30 minutes, and added with 5 μL of cAMP-d2 and 5 μL of a CAMP-cry antibody detection reagent. The test plate was centrifuged at 300 rpm for 1 minute, and incubated at room temperature for 60 minutes. The test plate was placed in the Envision multifunctional microplate reader for reading, with a detection wavelength of 665/615 nm.

MC4R = target: T2, MC4R (Homo sapiens, UniProt P32245); experiment: In vitro activity of MCR receptors, intracellular cAMP signal (HEK293T/MCR cell line), MC4R; type: cell-based; details: cAMP, HEK293T/MCR cell line; read-out: MC4R EC50
T2 construct: expressed in transfected cells
Description: as §1, §2

MC3R = target: T3, MC3R (Homo sapiens, UniProt P41968); experiment: In vitro activity of MCR receptors, intracellular cAMP signal (HEK293T/MCR cell line), MC3R; type: cell-based
T3 construct: expressed in transfected cells
Description: as §1
as §2, with “minutes.” for “minutes. The test plate was placed in the Envision multifunctional microplate reader for reading, with a detection wavelength of 665/615 nm.”

[1] = Drug concentration in brain tissues of rats, oral gavage; type: in vivo; details: SD, rat, p.o. 20 mg/kg
Description: 3.2 6 healthy SD rats of 6-9 weeks old were selected, and the test compound was administered by oral gavage (with a solvent of 50 mM citrate buffer solution, pH=5). Two animals were randomly selected at 0.5 hour, 1 hour and 4 hours after administration respectively, and plasma and brain tissue samples were collected for quantitative analysis of all biological samples using the LC-MS/MS method.

MDR1 = experiment: In vitro MDCK-MDR1 permeability; type: in vitro ADME; details: dog, MDCK-MDR1, pH 7.4, MDR1-MDCKII monolayer, 2 μM, 150 minutes
Description: (§3) MDR1-MDCKII cells (from the Netherlands Cancer Institute) were inoculated onto a 96-plate (from Corning) with a cell density of 2.5×10^5 cells/mL, and cultured for 4-7 days to form a co-polymeric cell monolayer. A Hank's equilibrium salt buffer (pH=7.40±0.05) containing 10 mM of 4-hydroxyethyl piperazine ethanesulfonic acid was used as a transport buffer. The bidirectional transport of the test compound at a concentration of 2 μM was tested, and the concentration of DMSO in the incubation system was controlled below 1%. After sample loading, the cell plate was placed at 37±1° C. for inoculation with 5% CO2 under a saturated humidity condition for 150 minutes. All samples were subjected to quantitative analysis using the LC-MS/MS method.
(§4) The apparent permeability coefficient (Papp, cm/s), the efflux ratio, and the recovery rate were calculated using the following formula.
(§5) The apparent permeability coefficient (Papp, cm/s) was calculated using the following formula: […]
(§6) DC/dt was the cumulative concentration (μM/s) of the compound at the receiving end per unit time; Vr was the volume of the solution at the receiving end (the solution volumes at the top and base ends were 0.075 mL and 0.250 mL, respectively); A was the relative surface area of the cell monolayer (0.0804 cm^2); and C0 was the initial concentration (nM) of a test sample at the administration end or the peak area ratio of a control sample.
(§7) The efflux ratio was calculated using the following formula: […]
(§8) The recovery rate was calculated using the following formula: […]
(§9) C0 was the initial concentration (nM) of the test sample at the administration end or the peak area ratio of the control sample; Vd was the volume of the administration end (0.075 mL on the top side and 0.250 mL on the base side); Cd and Cr were the final concentrations (nM) of the test sample at the administration end and the receiving end, or the peak area ratios of the control sample , respectively.

MDR1-MDCKII cells = experiment: In vitro MDCK-MDR1 permeability; type: in vitro ADME; details: MDR1-MDCKII permeability and efflux rating
Description: as §3, §4, §5, §6, §7, §8, §9

[2] = Drug concentration in brain tissues of rats, intravenous injection; type: in vivo, SD rats; details: rat, i.v. 2 mg/kg
Description: 3.1 6 healthy SD rats of 6-9 weeks old were selected, and the test compound was administered via intravenous injection. Two animals were randomly selected at 0.5 hour, 2 hours and 4 hours after administration respectively, and plasma and brain tissue samples were collected, and the quantitative assay of all biological samples was performed using the LC-MS/MS method.

MC1R = target: T4, MC1R (Homo sapiens, UniProt Q01726); experiment: In vitro activity of MCR receptors, intracellular cAMP signal (HEK293T/MCR cell line), MC1R; type: cell-based; details: cAMP, HEK293T/MCR cell line; read-out: MC1R EC50
T4 construct: expressed in transfected cells
Description: as §1
as §2, with “minutes.” for “minutes. The test plate was placed in the Envision multifunctional microplate reader for reading, with a detection wavelength of 665/615 nm.”

T2 sequence (P32245 whole entry): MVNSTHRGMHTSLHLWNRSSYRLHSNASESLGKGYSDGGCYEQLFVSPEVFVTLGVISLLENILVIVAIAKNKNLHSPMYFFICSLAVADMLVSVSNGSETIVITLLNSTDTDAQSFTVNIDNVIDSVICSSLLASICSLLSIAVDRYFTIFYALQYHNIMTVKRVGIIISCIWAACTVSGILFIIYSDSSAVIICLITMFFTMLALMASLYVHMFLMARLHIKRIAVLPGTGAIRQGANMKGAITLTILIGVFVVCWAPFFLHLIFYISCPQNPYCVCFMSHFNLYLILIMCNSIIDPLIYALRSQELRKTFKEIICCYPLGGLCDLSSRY
T3 sequence (P41968 whole entry): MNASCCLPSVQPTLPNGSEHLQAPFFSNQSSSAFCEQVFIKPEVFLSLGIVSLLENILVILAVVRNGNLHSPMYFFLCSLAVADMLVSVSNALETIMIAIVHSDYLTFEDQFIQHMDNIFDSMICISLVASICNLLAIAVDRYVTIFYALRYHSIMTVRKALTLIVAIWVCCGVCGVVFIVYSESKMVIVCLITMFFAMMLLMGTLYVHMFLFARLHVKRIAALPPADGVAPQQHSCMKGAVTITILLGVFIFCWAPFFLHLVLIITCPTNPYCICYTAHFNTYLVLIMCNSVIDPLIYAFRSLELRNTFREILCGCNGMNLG
T4 sequence (Q01726 whole entry): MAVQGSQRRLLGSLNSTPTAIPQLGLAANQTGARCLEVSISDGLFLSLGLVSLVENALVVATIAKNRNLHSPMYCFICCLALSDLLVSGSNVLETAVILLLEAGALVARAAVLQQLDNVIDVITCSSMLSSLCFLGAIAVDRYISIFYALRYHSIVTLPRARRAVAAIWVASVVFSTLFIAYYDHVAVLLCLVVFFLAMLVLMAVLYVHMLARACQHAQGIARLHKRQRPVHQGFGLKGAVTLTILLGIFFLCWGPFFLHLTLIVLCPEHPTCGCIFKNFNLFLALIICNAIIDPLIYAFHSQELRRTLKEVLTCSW
T1 sequence (P33032 whole entry): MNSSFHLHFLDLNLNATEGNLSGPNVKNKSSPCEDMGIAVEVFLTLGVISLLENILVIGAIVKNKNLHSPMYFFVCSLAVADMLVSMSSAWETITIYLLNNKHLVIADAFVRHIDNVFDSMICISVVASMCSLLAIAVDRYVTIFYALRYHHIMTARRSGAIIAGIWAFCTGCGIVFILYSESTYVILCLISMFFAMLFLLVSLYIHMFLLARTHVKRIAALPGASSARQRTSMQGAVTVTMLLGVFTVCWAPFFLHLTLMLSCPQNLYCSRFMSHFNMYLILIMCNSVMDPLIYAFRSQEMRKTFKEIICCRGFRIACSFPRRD

For `C[C@@H]1CN(C(=O)[C@@H]2CN(C3CCOCC3)C[C@H]2c2ccc(F)cc2F)C[C@H](C)N1c1ccc(F)cc1` (single isomer, unassigned) [Compound 7], the EC50 (MC5R) was over 10000 nM, the EC50 (MC4R) was 12 nM and the EC50 (MC3R) was 4220 nM. It also gave a concentration at 0.5 h ([1]; brain, 0.5 hour, read-out: Brain drug concentration) of 8600 nM, a concentration at 1 h ([1]; brain, 1 hour, read-out: Brain drug concentration) of 9680 nM and a concentration at 4 h ([1]; brain, 4 hours, read-out: Brain drug concentration) of 11400 nM. For the same molecule, the Kp uu at 0.5 h ([1]; brain/plasma, 0.5 hour) was 1.5, the Kp at 0.5 h ([1]; brain/plasma, 0.5 hour, read-out: Brain-to-blood ratio) was 11 and the Kp uu at 1 h ([1]; brain/plasma, 1 hour) was 1.5. For the same molecule, the Kp at 1 h ([1]; brain/plasma, 1 hour, read-out: Brain-to-blood ratio) was 10.8, the Kp uu at 4 h ([1]; brain/plasma, 4 hours) was 1.3 and the Kp at 4 h ([1]; brain/plasma, 4 hours, read-out: Brain-to-blood ratio) was 9.5. For the same molecule, the concentration at 0.5 h ([1]; plasma, 0.5 hour, read-out: Plasma drug concentration) was 783 nM, the concentration at 1 h ([1]; plasma, 1 hour, read-out: Plasma drug concentration) was 899 nM and the concentration at 4 h ([1]; plasma, 4 hours, read-out: Plasma drug concentration) was 1200 nM. The efflux ratio at 150 min, 2 μM (MDR1) was 0.98, the Papp A→B at 150 min, 2 μM (MDR1; pH 7.40) was 13.5 ×10⁻⁶ cm/s and the Papp B→A at 150 min, 2 μM (MDR1; pH 7.40) was 13.2 ×10⁻⁶ cm/s. For the same molecule, the Rating (MDR1-MDCKII cells) was “High permeability,; also recorded: low efflux”, the concentration at 0.5 h ([2]; SD, brain, iv, 0.5 hour, read-out: Brain drug concentration) was 2830 nM and the concentration at 2 h ([2]; SD, brain, iv, 2 hours, read-out: Brain drug concentration) was 965 nM. For the same molecule, the Kp at 0.5 h ([2]; SD, brain/plasma, iv, 0.5 hour, read-out: Brain-to-blood ratio) was 7.8, the Kp at 2 h ([2]; SD, brain/plasma, iv, 2 hours, read-out: Brain-to-blood ratio) was 6.9 and the concentration at 0.5 h ([2]; SD, plasma, iv, 0.5 hour, read-out: Plasma drug concentration) was 362 nM. The concentration at 2 h ([2]; SD, plasma, iv, 2 hours, read-out: Plasma drug concentration) was 141 nM, the “Brain drug concentration (nmol/L)” value ([2]; 4 hours) was “BQL” and the “Plasma drug concentration (nmol/L)” value ([2]; 4 hours) was “BQL”. It also gave an EC50 (MC1R) of 459 nM.
